Data as given in US9771352B2, “Hydroxyalkyl-substituted phenyltriazole derivatives and uses thereof” (BAYER PHARMA AKTIENGESELLSCHAFT, priority 2014, dated 2017).

How the values were obtained:
[1] = biological target: T1, human V2 receptor (Homo sapiens, UniProt P30518); assay: Cellular in vitro assay for determining vasopressin receptor activity, V2 receptor cell line (CRE-luciferase); assay type: cell-based; conditions: CHO cell line transfected with human V2 receptor; [Arg8]-vasopressin at EC50; compounds of the invention (Table 1A); read-out: IC50 hV2
T1 construct: expressed in transfected cells; host or cells: CHO K1 (ATCC) expressing firefly luciferase under a CRE-responsive promoter
Description: (§1) The identification of agonists and antagonists of the V1a and V2 vasopressin receptors from humans, rats and dogs as well as the quantification of the activity of the compounds of the invention is carried out using recombinant cell lines. These cell lines originally derive from a hamster's ovary epithelial cell (Chinese Hamster Ovary, CHO K1, ATCC: American Type Culture Collection, Manassas, Va. 20108, USA). The test cell lines constitutively express the human, rat or dog V1a or V2 receptors. In case of the […] V1a receptors, cells are also stably transfected with a modified form of the calcium-sensitive photoproteins aequorin (human and rat V1a) or obelin (dog V1a), which, after reconstitution with the cofactor coelenterazine, emit light when there are increases in free calcium concentrations [Rizzuto R, Simpson A W, Brini M, Pozzan T, Nature 358, 325-327 (1992); Illarionov B A, Bondar V S, Illarionova V A, Vysotski E S, Gene 153 (2), 273-274 (1995)]. The resulting vasopressin receptor cells react to stimulation of the recombinantly expressed V1a receptors by intracellular release of calcium ions, which can be quantified by the resulting photoprotein luminescence. The Gs-coupled V2 receptors are stably transfected into cell lines expressing the gene for firefly luciferase under control of a CRE-responsible promoter. Activation of V2 receptors induces the activation of the CRE-responsive promoter via cAMP increase, thereby inducing the expression of firefly luciferase. The light emitted by photoproteins of V1a cell lines as well as the light emitted by firefly luciferase of V2 cell lines corresponds to the activation or inhibition of the respective vasopressin receptor. The bioluminescence of the cell lines is detected using a suitable luminometer [Milligan G, Marshall F, Rees S, Trends in Pharmacological Sciences 17, 235-237 (1996)].
On the day before the assay, the cells are plated out in culture medium (DMEM/F12, 2% FCS, 2 mM glutamine, 10 mM HEPES) in 384-well microtiter plates and kept in a cell incubator (96% humidity, 5% v/v CO2, 37° C.). […] Upon addition of the cell lysis reagent Triton and the substrate luciferin, luminescence of firefly luciferase is measured in a luminometer.
(§2) Table 1A below lists individual IC50 values for the compounds of the invention (including diastereomeric mixtures as well as separated, enantiopure diastereomers) that were obtained from cell lines transfected with the human V1a or V2 receptor: […]

[2] = biological target: T2, human V1a receptor (Homo sapiens, UniProt P37288); assay: Cellular in vitro assay for determining vasopressin receptor activity, V1a receptor cell line (photoprotein luminescence); assay type: cell-based; conditions: CHO cell line transfected with human V1a receptor; [Arg8]-vasopressin at EC50; compounds of the invention (Table 1A); read-out: IC50 hV1a
T2 construct: expressed in transfected cells; host or cells: CHO K1 (ATCC), also stably transfected with modified aequorin
Description: as §1
On the day before the assay, the cells are plated out in culture medium (DMEM/F12, 2% FCS, 2 mM glutamine, 10 mM HEPES, 5 μg/ml coelenterazine) in 384-well microtiter plates and kept in a cell incubator (96% humidity, 5% v/v CO2, 37° C.). On the day of the assay, test compounds in various concentrations are placed for 10 minutes in the wells of the microtiter plate before the agonist [Arg^8]-vasopressin at EC50 concentration is added. The resulting light signal is measured immediately in the luminometer.
as §2

T1 sequence (P30518 whole entry): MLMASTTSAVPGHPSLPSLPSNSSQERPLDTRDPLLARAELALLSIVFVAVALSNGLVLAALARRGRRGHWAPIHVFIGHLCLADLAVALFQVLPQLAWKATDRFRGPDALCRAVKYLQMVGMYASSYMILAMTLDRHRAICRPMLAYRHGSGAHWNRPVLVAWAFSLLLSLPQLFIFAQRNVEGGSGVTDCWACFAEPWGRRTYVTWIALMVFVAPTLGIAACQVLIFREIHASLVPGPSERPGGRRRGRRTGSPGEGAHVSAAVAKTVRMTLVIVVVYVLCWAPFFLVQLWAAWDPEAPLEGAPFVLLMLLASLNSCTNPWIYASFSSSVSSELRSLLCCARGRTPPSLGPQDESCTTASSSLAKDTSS
T2 sequence (P37288 whole entry): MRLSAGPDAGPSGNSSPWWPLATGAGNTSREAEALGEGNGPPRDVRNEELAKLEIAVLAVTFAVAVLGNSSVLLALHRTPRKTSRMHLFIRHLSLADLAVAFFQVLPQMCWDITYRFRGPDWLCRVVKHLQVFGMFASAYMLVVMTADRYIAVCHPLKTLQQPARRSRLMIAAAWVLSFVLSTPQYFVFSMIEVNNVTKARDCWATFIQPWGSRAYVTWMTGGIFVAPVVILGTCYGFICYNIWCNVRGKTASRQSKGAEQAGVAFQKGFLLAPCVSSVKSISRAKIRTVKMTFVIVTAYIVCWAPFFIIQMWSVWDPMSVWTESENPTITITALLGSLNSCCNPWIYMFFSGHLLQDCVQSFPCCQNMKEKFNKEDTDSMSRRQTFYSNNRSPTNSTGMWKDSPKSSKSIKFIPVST

| SMILES | IC50 [1] [nM] | IC50 [2] [nM] |
| --- | --- | --- |
| CC(O)c1nc(Cn2nc(-c3ccc(Cl)cc3)n(C[C@H](O)C(F)(F)F)c2=O)nn1-c1cccc(OC(F)F)c1 (mixture of isomers) [Example 55, 5-(4-Chlorophenyl)-2-({1-[3-(difluoromethoxy)phenyl]-5-[(1RS)-1-hydroxyethyl]-1H-1,2,4-triazol-3-yl}methyl)-4-[(2S)-3,3,3-trifluoro-2-hydroxypropyl]-2,4-dihydro-3H-1,2,4-triazol-3-one] | 4.2 | 14.8 |
| CC(O)c1nc(Cn2nc(-c3ccc(Cl)cc3)n(C[C@H](O)C(F)(F)F)c2=O)nn1-c1cccc(F)c1F (mixture of isomers) [Example 64, 5-(4-Chlorophenyl)-2-({1-(2,3-difluorophenyl)-5-[(1RS)-1-hydroxyethyl]-1H-1,2,4-triazol-3-yl}-methyl)-4-[(2S)-3,3,3-trifluoro-2-hydroxypropyl]-2,4-dihydro-3H-1,2,4-triazol-3-one] | 5.1 | 8.1 |
| CC(O)c1nc(Cn2nc(-c3ccc(Cl)cc3)n(C[C@H](O)C(F)(F)F)c2=O)nn1-c1cccc(F)c1 (mixture of isomers) [Example 75, 5-(4-Chlorophenyl)-2-({1-(3-fluorophenyl)-5-[(1RS)-1-hydroxyethyl]-1H-1,2,4-triazol-3-yl}-methyl)-4-[(2S)-3,3,3-trifluoro-2-hydroxypropyl]-2,4-dihydro-3H-1,2,4-triazol-3-one] | 6.6 | 2.9 |
| CC(O)c1nc(Cn2nc(-c3ccc(Cl)cc3)n(C[C@H](O)C(F)(F)F)c2=O)nn1-c1cccc(Cl)c1 (mixture of isomers) [Example 78, 5-(4-Chlorophenyl)-2-({1-(3-chlorophenyl)-5-[(1RS)-1-hydroxyethyl]-1H-1,2,4-triazol-3-yl}-methyl)-4-[(2S)-3,3,3-trifluoro-2-hydroxypropyl]-2,4-dihydro-3H-1,2,4-triazol-3-one] | 3.1 | 10.4 |
| CC(O)c1nc(Cn2nc(-c3ccc(Cl)cc3)n(C[C@H](O)C(F)(F)F)c2=O)nn1-c1ccccc1 (single isomer, unassigned) [Example 18] | 8.6 | 14.1 |
| CC(O)c1nc(Cn2nc(-c3ccc(Cl)cc3)n(C[C@H](O)C(F)(F)F)c2=O)nn1-c1cccc(C(F)F)c1 (single isomer, unassigned) [Example 21] | 2.2 | 57.8 |
| CC(O)c1nc(Cn2nc(-c3ccc(Cl)cc3)n(C[C@H](O)C(F)(F)F)c2=O)nn1-c1cccc(C(F)(F)F)c1 (single isomer, unassigned) [Example 24] | 2 | 120 |
| CC(O)c1nc(Cn2nc(-c3ccc(Cl)cc3)n(C[C@H](O)C(F)(F)F)c2=O)nn1-c1cc(F)cc(F)c1 (single isomer, unassigned) [Example 26] | 3 | 3.1 |
| CC(O)c1nc(Cn2nc(-c3ccc(Cl)cc3)n(C[C@H](O)C(F)(F)F)c2=O)nn1-c1cc(F)cc(F)c1 (single isomer, unassigned) [Example 27] | 7.7 | 43.7 |
| CCc1ccccc1-n1nc(Cn2nc(-c3ccc(Cl)cc3)n(C[C@H](O)C(F)(F)F)c2=O)nc1C(C)O (single isomer, unassigned) [Example 33] | 2.3 | 1.6 |
| CC(O)c1nc(Cn2nc(-c3ccc(Cl)cc3)n(C[C@H](O)C(F)(F)F)c2=O)nn1-c1ccc(F)cc1Cl (single isomer, unassigned) [Example 36] | 2.8 | 0.8 |
| COc1ccc(F)cc1-n1nc(Cn2nc(-c3ccc(Cl)cc3)n(C[C@H](O)C(F)(F)F)c2=O)nc1C(C)O (single isomer, unassigned) [Example 39] | 3.5 | 1.5 |
| CC(O)c1nc(Cn2nc(-c3ccc(Cl)cc3)n(C[C@H](O)C(F)(F)F)c2=O)nn1-c1ccccc1F (single isomer, unassigned) [Example 41] | 7.9 | 1.8 |
| CC(O)c1nc(Cn2nc(-c3ccc(Cl)cc3)n(C[C@H](O)C(F)(F)F)c2=O)nn1-c1ccccc1F (single isomer, unassigned) [Example 42] | 12.7 | 5.1 |
| CC(O)c1nc(Cn2nc(-c3ccc(Cl)cc3)n(C[C@H](O)C(F)(F)F)c2=O)nn1-c1ccc(F)c(Cl)c1 (single isomer, unassigned) [Example 45] | 3.3 | 92.1 |
| CC(O)c1nc(Cn2nc(-c3ccc(Cl)cc3)n(C[C@H](O)C(F)(F)F)c2=O)nn1-c1cc(Cl)cc(Cl)c1 (single isomer, unassigned) [Example 47] | 3.7 | 18.9 |

Now those with a lower IC50 [1], led by results:

| IC50 [1] [nM] | IC50 [2] [nM] | SMILES |
| --- | --- | --- |
| 0.4 | 3.9 | CC(O)c1nc(Cn2nc(-c3ccc(Cl)cc3)n(C[C@H](O)C(F)(F)F)c2=O)nn1-c1cccc(Cl)c1F (mixture of isomers) [Example 52, 2-({1-(3-Chloro-2-fluorophenyl)-5-[(1RS)-1-hydroxyethyl]-1H-1,2,4-triazol-3-yl}methyl)-5-(4-chlorophenyl)-4-[(2S)-3,3,3-trifluoro-2-hydroxypropyl]-2,4-dihydro-3H-1,2,4-triazol-3-one] |
| 1.5 | 0.2 | CC(O)c1nc(Cn2nc(-c3ccc(Cl)cc3)n(C[C@H](O)C(F)(F)F)c2=O)nn1-c1cc(F)ccc1Cl (mixture of isomers) [Example 58, 2-({1-(2-Chloro-5-fluorophenyl)-5-[(1RS)-1-hydroxyethyl]-1H-1,2,4-triazol-3-yl}methyl)-5-(4-chlorophenyl)-4-[(2S)-3,3,3-trifluoro-2-hydroxypropyl]-2,4-dihydro-3H-1,2,4-triazol-3-one] |
| 0.2 | 3.2 | CC(O)c1nc(Cn2nc(-c3ccc(Cl)cc3)n(C[C@H](O)C(F)(F)F)c2=O)nn1-c1cccc(Cl)c1Cl (mixture of isomers) [Example 61, 5-(4-Chlorophenyl)-2-({1-(2,3-dichlorophenyl)-5-[(1RS)-1-hydroxyethyl]-1H-1,2,4-triazol-3-yl}-methyl)-4-[(2S)-3,3,3-trifluoro-2-hydroxypropyl]-2,4-dihydro-3H-1,2,4-triazol-3-one] |
| 0.3 | 0.4 | COc1ccccc1-n1nc(Cn2nc(-c3ccc(Cl)cc3)n(C[C@H](O)C(F)(F)F)c2=O)nc1C(C)O (single isomer, unassigned) [Example 11] |
| 1.1 | 1.3 | COc1ccccc1-n1nc(Cn2nc(-c3ccc(Cl)cc3)n(C[C@H](O)C(F)(F)F)c2=O)nc1C(C)O (single isomer, unassigned) [Example 12] |
| 0.8 | 3.8 | CC(O)c1nc(Cn2nc(-c3ccc(Cl)cc3)n(C[C@H](O)C(F)(F)F)c2=O)nn1-c1cccc(C(F)F)c1 (single isomer, unassigned) [Example 20] |
| 0.9 | 12.2 | CC(O)c1nc(Cn2nc(-c3ccc(Cl)cc3)n(C[C@H](O)C(F)(F)F)c2=O)nn1-c1cccc(C(F)(F)F)c1 (single isomer, unassigned) [Example 23] |
| 0.4 | 71.6 | Cc1cccc(-n2nc(Cn3nc(-c4ccc(Cl)cc4)n(C[C@H](O)C(F)(F)F)c3=O)nc2C(C)O)c1 (single isomer, unassigned) [Example 30] |
| 1 | 0.9 | CCc1ccccc1-n1nc(Cn2nc(-c3ccc(Cl)cc3)n(C[C@H](O)C(F)(F)F)c2=O)nc1C(C)O (single isomer, unassigned) [Example 32] |
| 1.6 | 0.5 | CC(O)c1nc(Cn2nc(-c3ccc(Cl)cc3)n(C[C@H](O)C(F)(F)F)c2=O)nn1-c1ccc(F)cc1Cl (single isomer, unassigned) [Example 35] |
| 0.9 | 0.6 | COc1ccc(F)cc1-n1nc(Cn2nc(-c3ccc(Cl)cc3)n(C[C@H](O)C(F)(F)F)c2=O)nc1C(C)O (single isomer, unassigned) [Example 38] |
| 1.2 | 6.1 | CC(O)c1nc(Cn2nc(-c3ccc(Cl)cc3)n(C[C@H](O)C(F)(F)F)c2=O)nn1-c1ccc(F)c(Cl)c1 (single isomer, unassigned) [Example 44] |
